This note sets out measurements from US7205305B2, “Inhibitors of p38” (Vertex Pharmaceuticals Incorporated, priority 1996, dated 2007).

Assay [1] relates to TNF production in whole blood. The assay can be described thus: Inhibition of TNF production in LPS-stimulated whole blood ("WB"). Particulars: Homo sapiens. Format: cell-based, human. The method, then:
(§1) Inhibitors were serially diluted in DMSO from a 20 mM stock. At least 6 serial dilutions were prepared. Then 4× inhibitor stocks were prepared by adding 4 μl of an inhibitor dilution to 1 ml of RPMI1640 medium/10% fetal bovine serum. The 4× inhibitor stocks contained inhibitor at concentrations of 80 μM, 32 μM, 12.8 μM, 5.12 μM, 2.048 μM, 0.819 μM, 0.328 μM, 0.131 μM, 0.052 μM, 0.021 μM etc. The 4× inhibitor stocks were pre-warmed at 37° C. until use.
(§2) Alternatively, whole blood containing an anti-coagulant was used directly in the assay.
(§3) We placed 100 μl of cell suspension or whole blood in each well of a 96-well cell culture plate. Then we added 50 μl of the 4× inhibitor stock to the cells. Finally, we added 50 μl of a lipopolysaccharide (LPS) working stock solution (16 ng/ml in cell culture medium) to give a final concentration of 4 ng/ml LPS in the assay. The total assay volume of the vehicle control was also adjusted to 200 μl by adding 50 μl cell culture medium. The PBMC cells or whole blood were then incubated overnight (for 12–15 hours) at 37° C./5% CO2 in a humidified atmosphere.
(§4) The next day the cells were mixed on a shaker for 3–5 minutes before centrifugation at 500×g for 5 minutes. Cell culture supernatants were harvested and analyzed by ELISA for levels of IL-1b (R & D Systems, Quantikine kits, #DBL50), TNF-α (BioSource, #KHC3012), IL-6 (Endogen, #EH2-IL6) and IL-8 (Endogen, #EH2-IL8) according to the instructions of the manufacturer. The ELISA data were used to generate dose-response curves from which IC50 values were derived.

The target of assay [2] is activated p38 (Homo sapiens, UniProt Q16539). Description: Inhibition of phosphorylation of EGF receptor peptide ("kinase"). Format: biochemical. The conditions noted are these: inhibition of phosphorylation of EGF receptor peptide by activated p38. Summed up:
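Activated p38 was preincubated with inhibitor for 15 min at room temperature in 100 mM HEPES pH 7.6, 10 mM MgCl2, 25 mM β-glycerophosphate, 10% glycerol, 5% DMSO final. Reaction used 200 μM EGF receptor peptide and 100 μM ATP for 30 min at 30° C. TFA-quenched phosphopeptide was quantified by reverse-phase HPLC.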

The test system of assay [3] is TNF production in LPS-stimulated PBMCs. The assay can be described thus: Inhibition of TNF production in LPS-stimulated PBMCs ("cell"). In kind it is cell-based, human. Particulars: Homo sapiens, PBMC. The method, then: as §1
(§5) Fresh human blood buffy cells were separated from other cells in a Vacutainer CPT from Becton & Dickinson (containing 4 ml blood and enough DPBS without Mg^2+/Ca^2+ to fill the tube) by centrifugation at 1500×g for 15 min. Peripheral blood mononuclear cells (PBMCs), located on top of the gradient in the Vacutainer, were removed and washed twice with RPMI1640 medium/10% fetal bovine serum. PBMCs were collected by centrifugation at 500×g for 10 min. The total cell number was determined using a Neubauer Cell Chamber and the cells were adjusted to a concentration of 4.8×10^6 cells/ml in cell culture medium (RPMI1640 supplemented with 10% fetal bovine serum).
as §3, §4

Assay [4] concerns IL-1 production in whole blood. Description: Inhibition of IL-1 production in LPS-stimulated whole blood ("WB"). In kind it is cell-based, human. The conditions noted are these: Homo sapiens. The protocol:
as §1, §2, §3, §4

For assay [5], the system named is IL-6 production in whole blood. Description: Inhibition of IL-6 production in LPS-stimulated whole blood ("WB"). The conditions noted are these: Homo sapiens. Format: cell-based, human. The method, then: as §1, §2, §3, §4
Assay [6] has as its system IL-1 production in LPS-stimulated PBMCs. The assay can be described thus: Inhibition of IL-1 production in LPS-stimulated PBMCs ("cell"). In kind it is cell-based, human. The conditions noted are these: Homo sapiens, PBMC. The protocol:
as §1, §5, §3, §4

activated p38, sequence (Q16539 whole entry): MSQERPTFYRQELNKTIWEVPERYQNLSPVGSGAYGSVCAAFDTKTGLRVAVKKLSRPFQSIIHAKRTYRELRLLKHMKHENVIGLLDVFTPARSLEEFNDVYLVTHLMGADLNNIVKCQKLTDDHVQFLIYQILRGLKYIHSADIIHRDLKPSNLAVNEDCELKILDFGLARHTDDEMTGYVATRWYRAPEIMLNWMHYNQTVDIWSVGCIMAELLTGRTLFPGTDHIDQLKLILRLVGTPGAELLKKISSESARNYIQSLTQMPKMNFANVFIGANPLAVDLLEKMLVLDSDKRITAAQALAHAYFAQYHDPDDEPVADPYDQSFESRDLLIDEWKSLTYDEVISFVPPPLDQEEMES

Take `Cc1ccc(Sc2ccc3c(-c4c(Cl)cccc4Cl)c(=O)ncn3n2)c(C)c1` [Compound 32]: the IC50 is no less than 500 nM in assay [1]; 100 to 1000 nM in assay [2]; 100 to 500 nM in assay [3]; no less than 500 nM in assay [4]; no less than 500 nM in assay [5]; no less than 500 nM in assay [6].

In the case of `O=c1ncn2nc(Sc3ccccc3O)ccc2c1-c1c(Cl)cccc1Cl` [Compound 33], the IC50 was no less than 500 nM in assay [1]; 100 to 1000 nM in assay [2]; 100 to 500 nM in assay [3]; no less than 500 nM in assay [4]; no less than 500 nM in assay [5]; 100 to 500 nM in assay [6].

With `Nc1cc(F)ccc1Sc1ccc2c(-c3c(Cl)cccc3Cl)c(=O)ncn2n1` [Compound 35], the IC50 in assay [1] was no less than 500 nM; in assay [2], 100 to 1000 nM; in assay [3], no less than 500 nM; in assay [4], no less than 500 nM; in assay [5], no less than 500 nM; in assay [6], 100 to 500 nM.

Turning to `COc1ccc(-c2c(=O)ncn3nc(Sc4ccc(F)cc4)ccc23)c(Cl)c1OC` [Compound 36], the IC50 in assay [1] is no less than 500 nM; in assay [2], no less than 1000 nM; in assay [3], no less than 500 nM; in assay [4], no less than 500 nM; in assay [5], no less than 500 nM; in assay [6], no less than 500 nM.

With `Nc1ccc(Cl)c(-c2c(=O)ncn3nc(Sc4ccc(Br)cc4)ccc23)c1Cl` [Compound 37], the IC50 in assay [1] was no less than 500 nM; in assay [2], 100 to 1000 nM; in assay [3] it was no less than 500 nM; in assay [4], no less than 500 nM; in assay [5], no less than 500 nM; in assay [6], 100 to 500 nM.

Regarding `O=c1ncn2nc(Sc3ccc(F)cc3Cl)ccc2c1-c1c(Cl)cccc1Cl` [Compound 38], the IC50 in assay [1] is 250 to 500 nM; in assay [2] it was no more than 100 nM; in assay [3] it was 100 to 500 nM; in assay [4] it was 250 to 500 nM; in assay [5], 250 to 500 nM; in assay [6], no more than 100 nM.

`O=C(CCl)Nc1ccc(-c2c(=O)ncn3nc(Sc4ccc(F)cc4)ccc23)c(Cl)c1` [Compound 49]: the IC50 in assay [1] is no less than 500 nM; in assay [2], 100 to 1000 nM; in assay [3] it was no less than 500 nM; in assay [4], no less than 500 nM; in assay [5] it was no less than 500 nM; in assay [6] it was no more than 100 nM.

Regarding `COC(=O)c1ccccc1SC1=NN2CNC(=O)C(c3c(Cl)cccc3Cl)=C2C=C1` [Compound 101], the half-inhibitory concentration (IC50) in assay [1] is no less than 500 nM; in assay [2] it was 100 to 1000 nM; in assay [3], no more than 100 nM; in assay [4], no less than 500 nM; in assay [5] it was 250 to 500 nM; in assay [6], no more than 100 nM.

As to `Cc1ccccc1SC1=NN2CNC(=O)C(c3c(Cl)cccc3Cl)=C2C=C1` [Compound 102], the concentration for half-maximal inhibition (IC50) was 250 to 500 nM in assay [1]; no more than 100 nM in assay [2]; no more than 100 nM in assay [3]; no less than 500 nM in assay [4]; 250 to 500 nM in assay [5]; no more than 100 nM in assay [6].

Consider `O=C1NCN2N=C(Sc3ccc(F)cc3)C=CC2=C1c1c(Cl)cccc1Cl` [Compound 103], for which the IC50 in assay [1] is 250 to 500 nM; in assay [2] it was no more than 100 nM; in assay [3] it was no more than 100 nM; in assay [4], no less than 500 nM; in assay [5], 250 to 500 nM; in assay [6], no more than 100 nM.

Regarding `O=C1NCN2N=C(Sc3ccccc3C(=O)O)C=CC2=C1c1c(Cl)cccc1Cl` [Compound 104], the IC50 in assay [1] is no less than 500 nM; in assay [2], 100 to 1000 nM; in assay [3] it was 100 to 500 nM; in assay [4], no less than 500 nM; in assay [5] it was no less than 500 nM; in assay [6], 100 to 500 nM.

Take `Cc1cc(Cl)ccc1SC1=NN2CNC(=O)C(c3c(Cl)cccc3Cl)=C2C=C1` [Compound 106]: the IC50 in assay [1] is 250 to 500 nM; in assay [2], no more than 100 nM; in assay [3], no more than 100 nM; in assay [4], no less than 500 nM; in assay [5] it was 250 to 500 nM; in assay [6] it was no more than 100 nM.

What is called IC50 is the midpoint of a concentration-inhibition curve. Lower therefore signals greater potency.
